Measurements from patent US4395274A, “Microbicidal agent and its use” (Bayer Aktiengesellschaft, priority 1979, dated 1983).
Read-outs that look alike come from different tables or passages of the source.

Experiments:
fungus = experiment: paper production: pulp feeding system, losses of active compound, effluent and discharged air; conditions: 0.5% by weight of paper added to the pulp
Procedure: (§1) Based on the weight of the paper (90 to 100 g/m^2) 0.5% of A/B=6/1 is homogeneously mixed under a pulp (density 1%, pH value 4.8) having the following composition:
If, however, as is customary, owing to the lack up until now of usable alternatives, 0.5% of sodium pentachlorophenolate (related to the weight of the paper) is added to the pulp, losses of active compound amounting to more than 50% occur (approx. 25% are found in the effluent and approx. 25% in the outgoing air).

rats = conditions: comparison compound; cited from earlier work
[1] = test system: Chaetomium globosum Kunze and Aspergillus niger; experiment: mould resistance of soap-wrapping paper; conditions: 0.5% by weight of paper added to pulp
Procedure: as §1
The mould resistance and the antimicrobial activity of the soap-wrapping paper obtained in this manner is tested in the following way:
Circular paper test specimens (diameter 4 cm) are placed in a nutrient medium in Petri dishes, the medium having previously been infested with the test fungi Chaetomium globosum Kunze and Aspergillus niger.

Aspergillus niger = experiment: minimum inhibitory concentration (MIC) in agar culture media; synergism by Kull et al; assay type: cell-based; conditions: for X (synergism index by Kull et al): X=1 additivity, X>1 antagonism, X<1 synergism
Procedure: (§2) The MIC values of A and B are compared with the MIC values of mixtures A/B.
(§3) The synergism is determined according to the method described by Kull et al (F. C. Kull, P. C. Eismann, H. D. Sylvestrowicz, R. L. Mayer, Applied Microbiol. 9, 538 to 541, 1961). The following symbols apply here: [formula] X=1 denotes additivity X>1 denotes antagonism
(§4) Qa =concentration of compound A, which represents the MIC
(§5) Qb =concentration of compound B, which represents the MIC
(§6) QA =the amount of compound A in the concentration of A/B, which prevents the growth of microbes
(§7) QB =the amount of compound B in the concentration of A/B which prevents the growth of microbes.

Coniophora cerebella = experiment: as above; assay type: cell-based; conditions: for X (synergism index by Kull et al): X=1 additivity, X>1 antagonism, X<1 synergism
Procedure: as §2, §3, §4, §5, §6, §7

Trichoderma viride = experiment: as above; assay type: cell-based; conditions: for X (synergism index by Kull et al): X=1 additivity, X>1 antagonism, X<1 synergism
Procedure: as §2, §3, §4, §5, §6, §7

Chaetomium globosum = experiment: as above; assay type: cell-based; conditions: for X (synergism index by Kull et al): X=1 additivity, X>1 antagonism, X<1 synergism
Procedure: as §2, §3, §4, §5, §6, §7

Pullularia pullulans = experiment: as above; assay type: cell-based; conditions: for X (synergism index by Kull et al): X=1 additivity, X>1 antagonism, X<1 synergism
Procedure: as §2, §3, §4, §5, §6, §7

Alternaria tenuis = experiment: as above; assay type: cell-based; conditions: for X (synergism index by Kull et al): X=1 additivity, X>1 antagonism, X<1 synergism
Procedure: as §2, §3, §4, §5, §6, §7

[2] = as a formaldehyde depot substance; cited from earlier work
[3] = A differs between Example 1 and Example 6

| SMILES | X (synergism index by Kull et al) (Aspergillus niger) | MIC (Aspergillus niger; agar culture media) | X (synergism index by Kull et al) (Coniophora cerebella) | MIC (Coniophora cerebella; agar culture media) [µg/mL] | X (synergism index by Kull et al) (Trichoderma viride) | MIC (Trichoderma viride; agar culture media) | X (synergism index by Kull et al) (Chaetomium globosum) | MIC (Chaetomium globosum; agar culture media) | X (synergism index by Kull et al) (Pullularia pullulans) | MIC (Pullularia pullulans; agar culture media) | X (synergism index by Kull et al) (Alternaria tenuis) | MIC (Alternaria tenuis; agar culture media) [µg/mL] | QA (amount of compound A in the concentration of A/B which prevents the growth of microbes) (Aspergillus niger; [3]) | QA (amount of compound A in the concentration of A/B which prevents the growth of microbes) (Coniophora cerebella; [3]) | QA (amount of compound A in the concentration of A/B which prevents the growth of microbes) (Trichoderma viride; [3]) | QA (amount of compound A in the concentration of A/B which prevents the growth of microbes) (Chaetomium globosum; [3]) | QA (amount of compound A in the concentration of A/B which prevents the growth of microbes) (Pullularia pullulans; [3]) | also measured |
| --- | --- | --- | --- | --- | --- | --- | --- | --- | --- | --- | --- | --- | --- | --- | --- | --- | --- | --- |
| [Na+].[O-]c1c(Cl)c(Cl)c(Cl)c(Cl)c1Cl [sodium pentachlorophenolate] | – | – | – | – | – | – | – | – | – | – | – | – | – | – | – | – | – | discharged air problems (fungus): disagreable odours, mucosal irritation; effluent toxicity (fungus): the effluent is toxic to fish; LD50 oral (rats): 270 mg/kg; mould-resistance of paper [1]: poor mould-resistance |
| COC(=O)Nc1nc2ccccc2[nH]1 [B, benzimidazolyl-methyl-carbamate] | 1 | 2,5 mg/l | 1 | 2000 | 1 | 2,5 mg/l | 1 | 0,4 mg/l | 1 | 0,25 mg/l | 1 | 5000 | – | – | – | – | – | QB (amount of compound B in the concentration of A/B which prevents the growth of microbes) (Aspergillus niger): 2,5; MIC (Aspergillus niger; Aspergillus niger, read-out: Qb (concentration of compound B, which represents the MIC)): 2.5 µg/mL; QB (amount of compound B in the concentration of A/B which prevents the growth of microbes) (Coniophora cerebella): 2000; MIC (Coniophora cerebella; Coniophora cerebella, read-out: Qb (concentration of compound B, which represents the MIC)): 2000 µg/mL; QB (amount of compound B in the concentration of A/B which prevents the growth of microbes) (Trichoderma viride): 2,5; MIC (Trichoderma viride; Trichoderma viride, read-out: Qb (concentration of compound B, which represents the MIC)): 2.5 µg/mL; QB (amount of compound B in the concentration of A/B which prevents the growth of microbes) (Chaetomium globosum): 0,4; MIC (Chaetomium globosum; Chaetomium globosum, read-out: Qb (concentration of compound B, which represents the MIC)): 0.4 µg/mL; QB (amount of compound B in the concentration of A/B which prevents the growth of microbes) (Pullularia pullulans): 0,25; MIC (Pullularia pullulans; read-out: Qb (concentration of compound B, which represents the MIC)): 0.25 µg/mL; QB (amount of compound B in the concentration of A/B which prevents the growth of microbes) (Alternaria tenuis): 5000; MIC (Alternaria tenuis; Alternaria alternata, read-out: Qb (concentration of compound B, which represents the MIC)): 5000 µg/mL |
| Oc1ccc(Cl)cc1Cc1cc(Cl)ccc1O [A/B 100/0 (Example 1), (2,2'-dihydroxy-5,5'-dichloro)-diphenyl-methane] | 1 | 20 µg/mL | 1 | 10 | 1 | 50 µg/mL | 1 | 50 µg/mL | 1 | 20 µg/mL | 1 | 20 | 20 | 10 | 50 | 50 | 20 | MIC (Aspergillus niger; Aspergillus niger, A differs between Example 1 and Example 6, read-out: Qa (concentration of compound A, which represents the MIC)): 20 µg/mL; MIC (Coniophora cerebella; Coniophora cerebella, A differs between Example 1 and Example 6, read-out: Qa (concentration of compound A, which represents the MIC)): 10 µg/mL; MIC (Trichoderma viride; Trichoderma viride, A differs between Example 1 and Example 6, read-out: Qa (concentration of compound A, which represents the MIC)): 50 µg/mL; MIC (Chaetomium globosum; Chaetomium globosum, A differs between Example 1 and Example 6, read-out: Qa (concentration of compound A, which represents the MIC)): 50 µg/mL; MIC (Pullularia pullulans; A differs between Example 1 and Example 6, read-out: Qa (concentration of compound A, which represents the MIC)): 20 µg/mL; QA (amount of compound A in the concentration of A/B which prevents the growth of microbes) (Alternaria tenuis): 20; MIC (Alternaria tenuis; Alternaria alternata, read-out: Qa (concentration of compound A, which represents the MIC)): 20 µg/mL |
| CN1CSC(=S)N(C)C1 [3,5-dimethyl-tetrahydro-1,3,5-thiadiazine-2-thione] | – | – | – | – | – | – | – | – | – | – | – | – | – | – | – | – | – | stability [2]: only moderately stable |
| Oc1ccccc1-c1ccccc1 [A/B 100/0 (Example 6), 2-hydroxy-diphenyl] | 1 | 50 µg/mL | 1 | 50 | 1 | 75 µg/mL | 1 | 50 µg/mL | 1 | 50 µg/mL | – | – | 50 | 50 | 75 | 50 | 50 | MIC (Aspergillus niger; Aspergillus niger, read-out: Qa (concentration of compound A, which represents the MIC)): 50 µg/mL; MIC (Coniophora cerebella; Coniophora cerebella, read-out: Qa (concentration of compound A, which represents the MIC)): 50 µg/mL; MIC (Trichoderma viride; Trichoderma viride, read-out: Qa (concentration of compound A, which represents the MIC)): 75 µg/mL; MIC (Chaetomium globosum; Chaetomium globosum, read-out: Qa (concentration of compound A, which represents the MIC)): 50 µg/mL; MIC (Pullularia pullulans; read-out: Qa (concentration of compound A, which represents the MIC)): 50 µg/mL |
